Legend:
Type in all cases: in vivo, rat
sciatic nerve = assay: Motor nerve conduction velocity (sciatic nerve) in streptozotocin-diabetic rats; conditions: STZ-diabetic rats, lovastatin 5.5 mg/kg; for MNCV (motor nerve conduction velocity): 2-week treatment after 6 weeks untreated diabetes, ruboxistaurin 0.25 mg/kg, mean ± SEM; for correction of diabetic deficit in motor conduction velocity: individual doses: ruboxistaurin 0.25 mg/kg
Procedure: (§1) Diabetes is induced in mature (19 week old) male Sprague-Dawley by streptozotocin injection (40-45 mg/kg i.p.). The diabetic state is monitored weekly using commercially available test strips for blood (tail vein) and urine glucose levels. Body weight is also be monitored daily. The criteria for the diabetic state are; blood glucose>19.9 mM, glycosuria, and no evidence of body weight gain. After 6 weeks of untreated diabetes, drugs are administered for a 2-week period.
(§2) In final experiments, rats are anaesthetized with thiobutabarbital (50-100 mg kg^−1 i.p.). The trachea is cannulated for artificial respiration. As described in Cameron N E, Cotter M A, Robertson S (1989), “The effect of aldose reductase inhibition on the pattern of nerve conduction deficits in diabetic rats.” Q. J. Exp. Physiol. 74:917-926; and Cameron N E, Cotter M A, Robertson S (1991), “Effects of essential fatty acid supplementation on peripheral nerve and skeletal muscle function and capillarization in streptozotocin diabetic rats.” Diabetes 40:532-539, the sciatic nerve is exposed between the sciatic notch and knee. Bipolar stimulating electrodes are placed close to the nerve at the notch and knee. A concentric bipolar electrode is inserted into tibialis anterior muscle to monitor evoked electromyographic (EMG) activity. Potentials from each stimulating site are averaged 8 times. Motor conduction velocity is calculated by dividing the distance between stimulating electrodes by the average latency difference between the onset of EMG potentials evoked from the 2 sites. Nerve temperature is monitored using a thermocouple probe, and maintained in the range 36-38° C. by radiant heat. Body temperature is also maintained around 37° C. using a heated blanket. Sensory conduction velocity is measured for sensory saphenous nerve between groin and mid calf in a similar fashion, except that direct nerve evoked potentials are recorded at the ankle using a unipolar platinum hook electrode.

sensory saphenous nerve = assay: Sensory nerve conduction velocity (saphenous nerve) in streptozotocin-diabetic rats; conditions: STZ-diabetic rats, lovastatin 5.5 mg/kg; for SNCV (sensory nerve conduction velocity): 2-week treatment after 6 weeks untreated diabetes, ruboxistaurin 0.25 mg/kg, mean ± SEM; for correction of diabetic deficit in sensory conduction velocity: individual doses: ruboxistaurin 0.25 mg/kg
Procedure: as §1, §2

[1] = test system: sciatic nerve endoneurium; assay: Sciatic endoneurial blood flow by microelectrode polarography and hydrogen clearance in streptozotocin-diabetic rats; conditions: STZ-diabetic rats, ruboxistaurin 0.25 mg/kg, lovastatin 5.5 mg/kg, mean ± SEM; for Blood Flow (sciatic endoneurial nutritive): 2-week treatment after 6 weeks untreated diabetes; for Vascular Conductance: blood flow divided by mean arterial blood pressure, 2-week treatment
Procedure: as §1
Sciatic endoneurial blood flow is estimated in the limb contralateral to that for conduction velocity measurements by microelectrode polarography and hydrogen clearance. Day T J, Lagerlund T D, Low P A (1989), “Analysis of H2 clearance curves used to measure blood flow in rat sciatic nerve,” J Physiol 414:35-54; Cameron N E, Cotter M A, Low P A (1991), “Nerve blood flow in early experimental diabetes in rats: relation to conduction deficits.” Am J Physiol 261:E1-E8; Cameron N E, Cotter M A, Hohman T C (1996), “Interactions between essential fatty acid, prostanoid, polyol pathway and nitric oxide mechanisms in the neurovascular deficit of diabetic rats,” Diabetologia 39:172-182. Rats are artificially ventilated. The carotid artery is cannulated to monitor blood pressure. The level of anaesthesia is monitored by observing any reaction of blood pressure to manipulation, and supplementary thiobutabarbital anaesthetic is given as necessary. The sciatic nerve is exposed and the skin around the incision sutured to a metal ring to form a pool filled with mineral oil at 37° C. During recordings, pool temperature is maintained at 35-37° C. by radiant heat. A glass-insulated platinum microelectrode, polarized at 250 mV with respect to a subcutaneous reference electrode, is inserted into the sciatic nerve endoneurium between the sciatic notch and the nerve trifurcation above the knee. 10% H2 would be added to the inspired gas, the proportions of O2 and N2 being adjusted to 20% and 70% respectively. When the H2 current recorded by the electrode has stabilized, indicating equilibrium with arterial blood, the H2 supply is shut off and N2 delivery increased appropriately. H2 clearance is recorded until a stable baseline is reached, which is defined as no systematic decline in electrode current over 5 min. This procedure is then repeated at another nerve site. […] Assuming a tissue density of 1, nutritive blood flow would be calculated as d×100 (ml min^−1 100 g^−1). Vascular conductance is calculated by dividing blood flow by the mean arterial blood pressure over the recording period for that particular clearance curve. […]

Compound | MNCV (motor nerve conduction velocity) (sciatic nerve) [m/s] | correction of diabetic deficit in motor conduction velocity (sciatic nerve) [%] | SNCV (sensory nerve conduction velocity) (sensory saphenous nerve) [m/s] | correction of diabetic deficit in sensory conduction velocity (sensory saphenous nerve) [%] | Blood Flow (sciatic endoneurial nutritive) [1] [ml/min/100 g] | Vascular Conductance [1] [ml/min/100 g/mm Hg]
CC[C@H](C)C(=O)O[C@H]1C[C@@H](C)C=C2C=C[C@H](C)[C@H](CC[C@@H]3C[C@@H](O)CC(=O)O3)[C@H]21 [LOV, lovastatin] | 54.0 ± 0.4 | ~20 | 54.6 ± 0.4 | ~20 | 10.4 ± 0.6 | 0.091 ± 0.006
CN(C)C[C@@H]1CCn2cc(c3ccccc32)C2=C(C(=O)NC2=O)c2cn(c3ccccc23)CCO1 [LY, (S)-9-((Dimethylamino)methyl)-6,7,10,11-tetrahydro-9H,18H-5,21:12,17-dimethenodibenzo(e,k)pyrrolo(3,4-h)(1,4,13)oxadiaza-cyclohexadecine-18,20(19H)-dione] | 53.5 ± 0.3 | ~20 | 54.8 ± 0.3 | ~20 | 10.7 ± 0.4 | 0.101 ± 0.008
